Data as given in US20060003410A1, “Prostaglandin reductase” (priority 2004, published 2006).

Key:
[1] = biological target: T1, recombinant mouse PGR-2 protein (Mus musculus, UniProt Q8VDQ1); assay: Substrate specificity of PGR-2 (NADPH consumption, absorbance at 490 nm); assay type: biochemical; conditions: 10 μg recombinant mouse PGR-2, 0.5 mM NADPH, substrate replacing 15-keto PGE2, 37° C., 10 minutes
T1 construct: The coding region of PGR-2 open reading frame was then subcloned to the expression vector pCMV-Tag2B; GST (N); made in house; host or cells: E. coli (pGEX-4T-3 vector)
T1 sequence (Q8VDQ1 whole entry): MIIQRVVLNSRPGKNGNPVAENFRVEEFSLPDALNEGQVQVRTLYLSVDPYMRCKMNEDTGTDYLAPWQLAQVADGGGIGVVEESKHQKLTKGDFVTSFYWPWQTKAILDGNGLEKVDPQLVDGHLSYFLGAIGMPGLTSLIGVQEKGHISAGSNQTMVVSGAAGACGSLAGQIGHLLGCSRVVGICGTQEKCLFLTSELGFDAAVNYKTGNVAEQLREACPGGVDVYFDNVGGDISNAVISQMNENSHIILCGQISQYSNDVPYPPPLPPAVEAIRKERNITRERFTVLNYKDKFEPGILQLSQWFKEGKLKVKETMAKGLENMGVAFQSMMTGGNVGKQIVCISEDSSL
Description: (§1) Mouse PGR-2 was recombinantly expressed in E.coli as a GST fusion protein following standard procedures. The recombinant PGR-2 protein thus obtained was used to determine substrate specificity and enzymatic kinetics.
(§2) Enzymatic activity was determined as follows. 10 μg of the recombinant mouse PGR-2 protein was incubated at 37° C. in a reaction buffer containing 0.1M Tris-HCl (pH7.4), 0.5 mM NADPH, and 0.57 mM 15-keto PGE2. The reaction was conducted at 37° C. in the dark for 10 minutes and terminated by adding 700 μl of a buffer which contained 50 mM potassium hydrogen phthalate, pH 3.0, and 1% Tween 20. 200 μl of a color development reagent, which contained 790 μM indonitrotetrazolium chloride, 60 μM phenazene methosulfate, and 1% Tween 20, was added to oxidize any unreacted NADPH. Absorbance at 490 nm was measured by an ELISA plate reader. A standard curve was generated using reaction buffers containing serially diluted amounts of NADPH.
Substrate specificity of PGR-2 was determined using the just-described procedure, except that 15-keto PGE2 was replaced with each of six prostaglandin substrates, each of three downstream metabolites, or leukotriene B4.

[2] = tested on: endogenous PPAR; assay: Reporter gene assay of endogenous PPAR activity in differentiating 3T3-L1 cells; assay type: cell-based, mouse; conditions: 3T3-L1 cells induced to differentiate for two days, transfected with a reporter gene
Description: (§3) The effect of prostaglandin on PPAR-gamma activity in adipocytes was investigated. After treatment with a medium that induces cell differentiation, 3T3-L1 cells were treated from day 2 to 4 during adipogenesis with 14 μM 15-keto PGE2, 13,14-dihydro-15-keto PGE2 , 15-keto PGF2α, 13,14-dihydro-15-keto PGF2α, or 4.5 μm of BRL49653, a PPAR-gamma agonist. See Forman et al., Cell (1995) 83:803-812. At day 6, aggregates of lipid droplets were stained with oil-red O for observation. […] After being induced to differentiate for two days, the 3T3-L1 cells were transfected with a reporter gene.

[3] = tested on: PPAR-gamma; assay: Luciferase reporter with PPAR-gamma ligand-binding domain fused to yeast GAL4 DNA-binding domain in 3T3-L1 cells; assay type: cell-based
Source text: (§4) A luciferase reporter gene was transfected to 3T3-L1 cells together with the ligand-binding domain of PPAR-alpha, PPAR-gamma or PPAR-delta fused to a yeast GAL4 DNA-binding domain.

[4] = biological target: T2, PPAR-alpha (Homo sapiens, UniProt Q07869); assay: Luciferase reporter with PPAR-alpha ligand-binding domain fused to yeast GAL4 DNA-binding domain in 3T3-L1 cells; assay type: cell-based; conditions: compared with PPAR-gamma
T2 construct: expressed in transfected cells; host or cells: 3T3-L1 cells
T2 sequence (Q07869 239-466 limits assumed): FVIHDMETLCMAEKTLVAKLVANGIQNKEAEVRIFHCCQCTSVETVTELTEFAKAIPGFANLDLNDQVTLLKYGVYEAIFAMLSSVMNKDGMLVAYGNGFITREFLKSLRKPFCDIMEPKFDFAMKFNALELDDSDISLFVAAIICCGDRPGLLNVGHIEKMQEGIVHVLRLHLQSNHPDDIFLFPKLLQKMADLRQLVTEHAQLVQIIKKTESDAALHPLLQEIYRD
Source text: as §4

[5] = biological target: T1, recombinant mouse PGR-2 protein; assay: Kinetics studies of PGR-2 catalyzed conversion; assay type: biochemical; conditions: order: 15-keto PGE2, then 15-keto PGF1α, 15-keto PGE1, 15-keto PGF2α
Description: as §1, §2
Unlike PGR/LTB4DH, PGR-2 used NADPH as a cofactor much more efficiently than NADH.

[6] = tested on: 3T3-L1 cells; assay: Adipogenesis in 3T3-L1 cells, lipid droplets stained with oil-red O; assay type: cell-based, mouse; conditions: 14 μM, treated day 2 to 4 during adipogenesis, stained at day 6
Description: as §3

[7] = tested on: 3T3-L1 cells; assay: Protein expression of adipogenesis-specific, PPAR-gamma target genes in 3T3-L1 cells; assay type: cell-based, mouse; conditions: for IRS-1 protein expression: 3T3-L1 cells
Source text: Also examined was the ability of 15-keto PGE2 to induce protein expression of adipogenesis-specific, PPAR-gamma target genes, i.e., IRS-1 and -2.

`CCCCCC(=O)CCC1C(=O)CC(O)C1C/C=C\CCCC(=O)O` (stereo not shown) [13,14-dihydro-15-keto PGD2] was tested, and the “specific activity with PGR-2 (substrate specificity)” value (shortened to “specific activity”) [1] was “no specific activity was detected”.

For `CCCCC[C@H](O)/C=C/[C@@H]1[C@@H](CC(=O)CCCCC(=O)O)[C@@H](O)C[C@H]1O` [6-keto PGF1α], the “specific activity” value [1] was “no specific activity was detected”.

`CCCCCC(=O)/C=C/[C@@H]1[C@@H](CCCCCCC(=O)O)[C@@H](O)C[C@H]1O` [15-keto PGF1α] was tested, and the “specific activity” value [1] was “reacted specifically with PGR-2”.

`CCCCC[C@H](O)/C=C/[C@@H]1[C@@H](C/C=C\CCCC(=O)O)[C@H](O)C[C@H]1O` [PGF2β] was tested, and the “specific activity” value [1] was “no specific activity was detected”.

In the case of `CCCCCC(=O)CC[C@H]1[C@H](O)CC(=O)[C@@H]1C/C=C\CCCC(=O)O` [13,14-dihydro-15-keto PGE2], the “specific activity” value [1] was “no specific activity was detected” and the “endogenous PPAR activity (reporter gene)” value [2] was “failed to increase PPAR activity”.

For `CCCCCC(=O)/C=C/[C@@H]1[C@@H](C/C=C\CCCC(=O)O)[C@@H](O)C[C@H]1O` [15-keto PGF2α], the “specific activity” value [1] was “reacted specifically with PGR-2”, the “endogenous PPAR activity (reporter gene)” value [2] was “enhanced endogenous PPAR activity significantly” and the “activation of PPAR-gamma (GAL4 fusion, luciferase reporter)” value [3] was “activated”. The “activation of PPAR-alpha (GAL4 fusion, luciferase reporter)” value [4] was “to a lesser degree”.

With `CCCCC[C@H](O)/C=C/[C@@H]1[C@@H](C/C=C\CCCC(=O)O)[C@@H](O)C[C@@H]1O` [11b-PGF2α] the “specific activity” value [1] was “no specific activity was detected”.

In the case of `CCCCCC(=O)/C=C/[C@H]1[C@H](O)CC(=O)[C@@H]1CCCCCCC(=O)O` [15-keto PGE1], the “specific activity” value [1] was “reacted specifically with PGR-2”.

With `CCCCCC(=O)/C=C/[C@H]1[C@H](O)CC(=O)[C@@H]1C/C=C\CCCC(=O)O` [15-keto PGE2] the “efficiency of PGR-2 catalyzed conversion (rank order)” value [5] was “most efficiently”, the “adipogenesis (aggregates of lipid droplets, oil-red O)” value [6] was “effectively enhanced adipogenesis at a level similar to BRL49653” and the “endogenous PPAR activity (reporter gene)” value [2] was “enhanced endogenous PPAR activity significantly”. The “activation of PPAR-gamma (GAL4 fusion, luciferase reporter)” value [3] was “activated”, the “activation of PPAR-alpha (GAL4 fusion, luciferase reporter)” value [4] was “to a lesser degree” and the IRS-1 protein expression [7] was “did not increase”. For the same molecule, the “PPAR-gamma1 and PPAR-gamma2 protein expression” value ([7]; added with MIX, insulin and dexamethasone) was “significantly enhanced”, the “expression of aP2, an adipocyte-specific marker” value ([7]; even in the absence of MIX) was “strongly induced” and the IRS-2 expression ([7]; in the presence of insulin and dexamethasone) was “enhanced the expression to a level similar to MIX”.

For `CC(C)Cn1c(=O)n(C)c(=O)c2[nH]cnc21` [MIX, methylisobutylxanthine], the IRS-1 protein expression [7] was “induced IRS-1 expression”.

In the case of `CCCCCC(=O)CC[C@@H]1[C@@H](C/C=C\CCCC(=O)O)[C@@H](O)C[C@H]1O` [13,14-dihydro-15-keto PGF2α], the “specific activity” value [1] was “no specific activity was detected” and the “endogenous PPAR activity (reporter gene)” value [2] was “failed to increase PPAR activity”.

In the case of `CCCCC/C=C\C[C@@H](O)/C=C/C=C/C=C\[C@@H](O)CCCC(=O)O` [leukotriene B4], the “specific activity” value [1] was “no specific activity was detected”.
